Values belong to the molecule of their own block, whether it stands above or below them.
What was measured:
Format in all cases: physicochemical
[1] = In vitro release of leuprolide from D-PLA/L-PLA complex powder; conditions: in 40 days; 4 mg leuprolide acetate in D-PLA/L-PLA complex powder; phosphate buffer pH 7.4 at 37° C.
Method: Preparation of complex: Solutions of leuprolide acetate in acetonitrile (4 mg) and D-PLA, (58 mg, Mw=100,000) and L-PLA (38 mg, Mw=30,000) in acetonitrile were mixed together (total 5 ml) and allowed to stir for 3 days at 50° C. The precipitated powder was isolated by filtration to yield 98 mg of 1 micron size porous particles. No leuprolide remained in the acetonitrile solution.
In vitro release was conducted in phosphate buffer pH 7.4 at 37° C. Leuprolide concentration was determined by HPLC (acetonitrile:water, C18 column, 1 ml/min). About 37% of the drug was released constantly in 40 days.

[2] = LHRH release from PLA stereocomplex powders in phosphate buffer (syringe method, HPLC); conditions: nanosize complexes of LHRH with D-PLA, precipitated in hot acetonitrile
Method: The analysis of LHRH was conducted using the following HPLC method: Mobile phase comprised 30% acetonitrile, 70% TEAP (triethylammoniumphosphate) buffer […] pH-3. Column comprised Lichrosphere RP-18 […] (MERCK); Detector. UV 278 nm and flow rate at 1 ml/min.
All samples were filtered through a 2μ filter. One drop of phosphoric acid was added to the sample solutions before injection. The retention time for LHRH was 6.5 minutes and a calibration curve was generated (r2=0.999).
Since the powder of the LHRH in the stereocomplex is very thin, all the attempts to sink it at the release medium failed. The release was conducted in the following way: 100 mg of the powder in 5 ml phosphate buffer were added to a 10 ml syringe. The edge of the syringe was sealed and constantly shaken at a rate of 150 RPM and a temperature of 37° C. At each interval of time, the syringe was inverted so that the solid floated at the top of the buffer and all of the buffer was pushed out of the syringe in a dropwise fashion. Using this technique, the powders of LHRH in PLA stereocomplex (formulations a-e) were analyzed against a control blank of PLA stereocomplex (no drug).

[3] = Ibuprofen release from D-PLA-HSA stereocomplex tablets in phosphate buffer; conditions: ibuprofen (100 mg) with D-PLA-HSA or D-PLA-L-PLA-HSA (500 mg), 300 mg tablets; phosphate buffer at physiological pH 37° C.
Method: The precipitate of D-PLA-HSA prepared as described in Example 9 was also used as a matrix carrier for the delivery of small drugs. In a typical experiment, a fine powder of ibuprofen (100 mg) was mixed with the D-PLA-HSA or D-PLA-L-PLA-HSA (500 mg) and the powder was compressed into tablets of 300 mg each. The tablets released the ibuprofen for one week when placed in phosphate buffer at physiological pH 37° C. In similar experiments, other proteins were stereocomplexed with PLA enantiomers including fibrin, fibrinogen, collagen and gelatin.

[4] = Release of lidocaine from compression molded stereocomplex devices in buffer; conditions: compression molded D-PLA/L-PLA stereocomplex (200 mg, Mw=30,000) with lidocaine (20 mg); buffer solution pH 7.4 at 37° C.
Method: A fine powder of the nano-discs stereocomplexed of D-PLA and L-PLA and their complexes which were of flat shapes of discs, rods, and triangles, as analyzed in Example 3, provided a unique opportunity for the preparation of drug delivery devices. Devices were prepared by compression molding of these nanoscale structures with drugs.
The disintegration time and the release of the incorporated drug in buffer solutions was slower than the compression molded devices of the corresponding regular polymers. The regular polymer powders are difficult to obtain and their properties are erratic, since they are prepared by precipitation in non-aqueous solvent and grinding at a temperature below the glass transition temperature which provides irregular particle size and shape. The particles formed by stereocomplex formation are of well-defined flat crystallites that are easy to compression mold.
In a typical experiment, disc (10×2 mm) and rod shape (4×10 mm) devices were prepared by mixing the stereocomplex powder of D-PLA and L-PLA (200 mg, Mw=30,000) with lidocaine (20 mg) and compression molding into discs of […] size.
Lidocaine was released constantly for 30 days when placed in buffer solution p H7.4 at 37° C.

[5] = MTX release from PLA stereocomplex tablets in phosphate buffer; conditions: first 10 days; 10 ml pH 7.4 phosphate buffer at 37° C., shaking 150 RPM
Method: Formulations: MTX was incorporated in a stereocomplex of D-PLA/L-PLA (Mw=30,000) prepared by precipitation in acetonitrile. The drug in the form of a powder was mixed with the stereocomplex in the form of a powder, and the mixture compression molded to form tablets. Alternatively, the stereocomplex and MTX were dissolved in dichloromethane, and solvent evaporated to yield a fine powder. For comparison, a solution of random amorphic DL-PLA (Mw=30,000) and MTX was evaporated to dryness to yield a clear flexible and strong yellow film which could be formed into a powder through the use of liquid nitrogen.
In a typical experiment, 300 mg of PLA 1:1 stereocomplex was dissolved in dichloromethane. MTX (5% w/w) was added to the solution, and the mixture was vortexed for two minutes. The solvent was evaporated with a nitrogen stream, to yield a very fine powder. […] Discs were prepared by compression molding of the MTX—stereocomplex power (100 mg) using a stainless steel mold (internal diameter 10 mm) and a Carver Press at 10 tons. Alternatively, 300 mg of PLA 1:1 stereocomplex fine powder (average particle size 2.2 microns was mixed with MTX (150 mg) and the uniform powder was compressed into tablets of 200 mg each.
MTX release was conducted in 10 ml of pH 7.4 phosphate buffer at 37° C. with constant shaking of 150 RPM. […]

[6] = TRH release from D-PLA complex powder in phosphate buffer; conditions: D-PLA complex powder (10% w/w TRH) dispersed in phosphate buffer pH7.4 at 37° C.
Method: TRH is a tripeptide with the following structure: pL-Glu-L-His-L-Pro_NH2. 250 mg of D-PLA (Mw=30,000 or Mw=6,000) were mixed with 25 mg (10% w/w) of TRH in 10 ml acetonitrile at 60° C. The solution became clear after 15 minutes and remained clear for 72 hours, at which point precipitate formed. The solution was very turbid, but could not be filtered at room temperature due to the fine particle size of the precipitate. After cooling at 0° C. over night, the precipitate was filtered. The TRH concentration in the acetonitrile solution and in the powder was analyzed as described above using the Lowry method for peptide analysis. Over 90% of the drug was determined to be in the powder and a negligible amount of the drug was found in the acetonitrile solution. When dispersed in phosphate buffer pH7.4 at 37° C., TRH was constantly released for 6 weeks.

- drug (leuprolide) released constantly [1]: About 37%
Molecule: CCNC(=O)[C@@H]1CCCN1C(=O)[C@H](CCCNC(=N)N)NC(=O)[C@H](CC(C)C)NC(=O)[C@@H](CC(C)C)NC(=O)[C@H](Cc1ccc(O)cc1)NC(=O)[C@H](CO)NC(=O)[C@H](Cc1c[nH]c2ccccc12)NC(=O)[C@H](Cc1c[nH]cn1)NC(=O)[C@@H]1CCC(=O)N1 [Leuprolide, leuprolide acetate]

Molecule: Leutinizing Hormone Releasing Hormone [LHRH]
- time over which LHRH was constantly released from nanospheres [2]: over 3 weeks

- time over which the tablets released ibuprofen [3]: one
Molecule: CC(C)Cc1ccc(C(C)C(=O)O)cc1 (stereo not drawn) [ibuprofen]

Molecule: CCN(CC)CC(=O)Nc1c(C)cccc1C [Lidocaine, lidocaine]
- time over which lidocaine was released constantly [4]: 30 days

- MTX constantly released from the PLA stereocomplex [5]: About 30%
Molecule: CN(Cc1cnc2nc(N)nc(N)c2n1)c1ccc(C(=O)N[C@@H](CCC(=O)O)C(=O)O)cc1 [MTX, Methotrexate]

Molecule: pL-Glu-L-His-L-Pro_NH2 [TRH]
- time over which TRH was constantly released [6]: 6 weeks

Reference: patent publication US6365173B1, “Stereocomplex polymeric carriers for drug delivery” (Efrat Biopolymers Ltd., priority 1999, dated 2002)
